# Assay results taken from ChEMBL document CHEMBL5247642, “Structural Optimization of Fibroblast Growth Factor Receptor Inhibitors for Treating Solid Tumors” (J Med Chem, 2023).
# Calls of active or inactive are those of the source. No cut-off for these calls is given here.
# Experiments:
# [1] = GSH reactivity in PBS buffer assessed as percentage peak area ratio incubated for 24 hrs by LC-MS/MS analysis; format: physicochemical
# NCI-H226 = test: Antiproliferative activity against human NCI-H226 cells assessed as reduction in cell viability measured after 72 hrs; format: functional, cell-based; conditions: NCI-H226, 72 h
# NCI-H3122 = test: Antiproliferative activity against human NCI-H3122 cells assessed as reduction in cell viability measured after 72 hrs; format: functional, cell-based; conditions: NCI-H3122, 72 h
# NCI-H1792 = test: Antiproliferative activity against human NCI-H1792 cells assessed as reduction in cell viability measured after 72 hrs; format: functional, cell-based; conditions: NCI-H1792, 72 h
# [2] = molecular target: Vascular endothelial growth factor receptor 2 (Homo sapiens) (UniProt P35968); test: Inhibition of VEGFR2 (unknown origin) at 1 uM using Poly (Glu,Tyr) 4:1 as substrate incubated for 60 mins in presence of ATP by ELISA analysis relative to control
# [3] = molecular target: T1, Fibroblast growth factor receptor 1 (Homo sapiens, UniProt P11362); conditions: dose 100.0 nM, time 60.0 min
# [4] = molecular target: T2, Fibroblast growth factor receptor 4 (Homo sapiens, UniProt P22455); test: Inhibition of FGFR4 (unknown origin) using Poly (Glu,Tyr) 4:1 as substrate incubated for 60 mins in presence of ATP by ELISA analysis
# ASPC1 = test: Antiproliferative activity against human ASPC1 cells assessed as reduction in cell viability measured after 72 hrs; format: functional, cell-based; conditions: ASPC1, 72 h
# [5] = molecular target: T1, Fibroblast growth factor receptor 1; conditions: dose 1.0 nM, time 60.0 min
# [6] = Stability in rat whole blood assessed as parent compound remaining measured after 2 hrs by LC-MS/MS analysis; format: ADME, tissue-based; conditions: read-out: Stability
# NCI-H716 = test: Antiproliferative activity against human NCI-H716 cells expressing FGFR2 assessed as reduction in cell viability measured after 72 hrs; format: functional, cell-based; conditions: NCI-H716, 72 h
# [7] = molecular target: Fibroblast growth factor receptor 2 (Homo sapiens, UniProt P21802, N549H); test: Inhibition of human recombinant FGFR2 N549H mutant (456 to 770 residues) using GGEEEEYFELVKK as substrate incubated for 40 mins presence of [gamma-33P]-ATP by radiometric based scintillation counter assay
# [8] = molecular target: T1, Fibroblast growth factor receptor 1; conditions: dose 10.0 nM, time 60.0 min
# NCI-H441 = test: Antiproliferative activity against human NCI-H441 cells assessed as reduction in cell viability measured after 72 hrs; format: functional, cell-based; conditions: NCI-H441, 72 h
# HCC4006 = test: Antiproliferative activity against human HCC4006 cells assessed as reduction in cell viability measured after 72 hrs; format: functional, cell-based; conditions: HCC4006, 72 h
# NCI-H1299 = test: Antiproliferative activity against human NCI-H1299 cells assessed as reduction in cell viability measured after 72 hrs; format: functional, cell-based; conditions: NCI-H1299, 72 h
# SNU-16 [9] = test: Antiproliferative activity against human SNU-16 cells assessed as reduction in cell viability measured for 72 hrs; format: functional, cell-based; conditions: SNU-16, 72 h
# [10] = Toxicity in nude mouse xenografted with human SNU-16 cells assessed as body weight loss at 200 to 400 mg/kg, po administered once daily for 21 days; format: organism-based; conditions: in vivo, 504 h, dose 200-400 mg/kg, time 21 day
# [11] = molecular target: Voltage-gated inwardly rectifying potassium channel KCNH2 (Homo sapiens, UniProt Q12809); test: Inhibition of hERG expressed in CHO cells at -80 mV holding potential by automated patch clamp method; format: toxicity, cell-based
# SNU-16 [12] = test: Antitumor activity against human SNU-16 cells xenografted in nude mouse assessed as tumor growth inhibition at 200 mg/kg, po administered once daily for 21 days by microcaliper analysis relative to control; format: functional; design: scale not given: the % may be the effect or the level left; conditions: time 21 day
# NCI-H727 = test: Antiproliferative activity against human NCI-H727 cells assessed as reduction in cell viability measured after 72 hrs; format: functional, cell-based; conditions: NCI-H727, 72 h
# [13] = AUC (0 to t) in CD-1 mouse at 1 mg/kg, iv measured after 24 hrs by LC-MS/MS analysis; format: ADME, organism-based; design: time 24 hrs, dose 1 mg/kg, route iv; conditions: in vivo
# [14] = molecular target: T3, Fibroblast growth factor receptor (Homo sapiens) (UniProt P22607+P11362+P22455+P21802); test: Inhibition of FGFR signalling in human SNU-16 assessed as inhibition of pErk phosphorylation at 0.1 nM incubated for 2 hrs by Western blot analysis; format: cell-based
# NCI-H1581 [15] = test: Antiproliferative activity against human NCI-H1581 cells expressing FGFR1 assessed as reduction in cell viability measured after 72 hrs; format: functional, cell-based; conditions: NCI-H1581, 72 h
# BaF3 = test: Antiproliferative activity against mouse BaF3 cells assessed as reduction in cell viability measured after 72 hrs; format: functional, cell-based; conditions: BaF3, 72 h
# OPM-2 = test: Antiproliferative activity against human OPM-2 cells expressing FGFR3 assessed as reduction in cell viability measured after 72 hrs; format: functional, cell-based; conditions: OPM-2, 72 h
# CAPAN-1 = test: Antiproliferative activity against human CAPAN-1 cells assessed as reduction in cell viability measured after 72 hrs; format: functional, cell-based; conditions: CAPAN-1, 72 h
# [16] = Half life in CD-1 mouse at 3 mg/kg, po measured after 24 hrs by LC-MS/MS analysis; format: ADME, organism-based; conditions: in vivo
# [17] = Cmax in CD-1 mouse at 3 mg/kg, po measured after 24 hrs by LC-MS/MS analysis; format: ADME, organism-based; design: time 24 hrs, dose 3 mg/kg, route po; conditions: in vivo
# NCI-H526 = test: Antiproliferative activity against human NCI-H526 cells assessed as reduction in cell viability measured after 72 hrs; format: functional, cell-based; conditions: NCI-H526, 72 h
# [18] = Tmax in CD-1 mouse at 3 mg/kg, po measured after 24 hrs by LC-MS/MS analysis; format: ADME, organism-based; conditions: in vivo
# [19] = molecular target: T3, Fibroblast growth factor receptor (Homo sapiens); test: Inhibition of FGFR signalling in human SNU-16 assessed as inhibition of PLCgamma phosphorylation at 0.1 nM incubated for 2 hrs by Western blot analysis; format: cell-based
# [20] = molecular target: Fibroblast growth factor receptor 3 (Homo sapiens, UniProt P22607); test: Inhibition of FGFR3 (unknown origin) using Poly (Glu,Tyr) 4:1 as substrate incubated for 60 mins in presence of ATP by ELISA analysis
# PC-9 = test: Antiproliferative activity against human PC-9 cells assessed as reduction in cell viability measured after 72 hrs; format: functional, cell-based; conditions: PC-9, 72 h
# SU.86.86 = test: Antiproliferative activity against human SU-86-86 cells assessed as reduction in cell viability measured after 72 hrs; format: functional, cell-based; conditions: SU.86.86, 72 h
# [21] = molecular target: T2, Fibroblast growth factor receptor 4; test: Inhibition of FGFR4 (unknown origin)
# [22] = molecular target: Fibroblast growth factor receptor 2 (Homo sapiens, UniProt P21802, V564F); test: Inhibition of FGFR2 V564F mutant (unknown origin)
# NCI-H1581 [23] = test: Antitumor activity against human NCI-H1581 cells xenografted in nude mouse assessed as tumor growth inhibition at 400 mg/kg, po administered once daily for 11 days by microcaliper analysis; format: functional, organism-based; conditions: time 11.0 day
# T1 sequence (P11362 22-822 limits assumed): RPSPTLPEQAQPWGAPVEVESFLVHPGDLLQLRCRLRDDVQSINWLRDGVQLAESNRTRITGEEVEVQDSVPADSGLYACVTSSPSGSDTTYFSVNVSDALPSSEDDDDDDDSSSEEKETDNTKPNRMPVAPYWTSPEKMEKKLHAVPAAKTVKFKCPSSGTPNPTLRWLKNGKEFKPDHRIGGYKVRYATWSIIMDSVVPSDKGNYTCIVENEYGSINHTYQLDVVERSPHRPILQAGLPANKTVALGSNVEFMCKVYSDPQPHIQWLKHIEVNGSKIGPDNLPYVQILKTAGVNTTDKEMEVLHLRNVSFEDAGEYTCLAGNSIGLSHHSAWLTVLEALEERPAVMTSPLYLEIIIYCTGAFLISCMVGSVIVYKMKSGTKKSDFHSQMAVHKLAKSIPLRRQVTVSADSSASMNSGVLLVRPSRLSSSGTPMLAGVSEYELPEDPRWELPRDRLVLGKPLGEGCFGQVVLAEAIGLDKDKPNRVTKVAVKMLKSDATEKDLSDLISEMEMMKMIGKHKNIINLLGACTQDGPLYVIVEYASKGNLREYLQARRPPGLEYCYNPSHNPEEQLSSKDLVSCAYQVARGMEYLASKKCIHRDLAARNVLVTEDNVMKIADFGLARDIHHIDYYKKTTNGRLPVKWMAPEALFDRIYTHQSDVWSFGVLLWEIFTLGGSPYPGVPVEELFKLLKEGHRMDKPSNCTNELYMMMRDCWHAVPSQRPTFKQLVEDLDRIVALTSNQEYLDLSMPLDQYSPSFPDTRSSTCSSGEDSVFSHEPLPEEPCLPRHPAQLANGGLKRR
# T3 sequence (P11362 whole entry, looked up): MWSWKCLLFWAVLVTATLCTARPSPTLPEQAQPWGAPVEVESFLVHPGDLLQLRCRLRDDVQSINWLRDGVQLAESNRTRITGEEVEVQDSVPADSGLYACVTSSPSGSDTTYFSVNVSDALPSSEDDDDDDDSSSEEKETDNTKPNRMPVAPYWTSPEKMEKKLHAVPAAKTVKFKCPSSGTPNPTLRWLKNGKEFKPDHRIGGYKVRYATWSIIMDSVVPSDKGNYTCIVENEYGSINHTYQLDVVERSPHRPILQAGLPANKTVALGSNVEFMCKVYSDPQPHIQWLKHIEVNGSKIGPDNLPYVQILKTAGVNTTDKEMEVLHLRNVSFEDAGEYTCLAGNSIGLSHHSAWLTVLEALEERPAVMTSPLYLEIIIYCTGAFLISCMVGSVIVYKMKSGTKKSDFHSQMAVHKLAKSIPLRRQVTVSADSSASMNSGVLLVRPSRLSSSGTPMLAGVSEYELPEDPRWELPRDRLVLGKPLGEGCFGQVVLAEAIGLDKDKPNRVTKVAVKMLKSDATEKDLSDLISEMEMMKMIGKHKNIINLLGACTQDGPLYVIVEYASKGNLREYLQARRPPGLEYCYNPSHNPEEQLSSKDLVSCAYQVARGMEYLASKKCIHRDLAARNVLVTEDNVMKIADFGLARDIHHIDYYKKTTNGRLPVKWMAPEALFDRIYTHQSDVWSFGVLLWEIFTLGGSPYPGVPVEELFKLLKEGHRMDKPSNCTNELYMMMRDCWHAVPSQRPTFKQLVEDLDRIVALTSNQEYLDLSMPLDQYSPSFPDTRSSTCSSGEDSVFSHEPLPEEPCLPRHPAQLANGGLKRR
# T3 sequence (P21802 whole entry, looked up): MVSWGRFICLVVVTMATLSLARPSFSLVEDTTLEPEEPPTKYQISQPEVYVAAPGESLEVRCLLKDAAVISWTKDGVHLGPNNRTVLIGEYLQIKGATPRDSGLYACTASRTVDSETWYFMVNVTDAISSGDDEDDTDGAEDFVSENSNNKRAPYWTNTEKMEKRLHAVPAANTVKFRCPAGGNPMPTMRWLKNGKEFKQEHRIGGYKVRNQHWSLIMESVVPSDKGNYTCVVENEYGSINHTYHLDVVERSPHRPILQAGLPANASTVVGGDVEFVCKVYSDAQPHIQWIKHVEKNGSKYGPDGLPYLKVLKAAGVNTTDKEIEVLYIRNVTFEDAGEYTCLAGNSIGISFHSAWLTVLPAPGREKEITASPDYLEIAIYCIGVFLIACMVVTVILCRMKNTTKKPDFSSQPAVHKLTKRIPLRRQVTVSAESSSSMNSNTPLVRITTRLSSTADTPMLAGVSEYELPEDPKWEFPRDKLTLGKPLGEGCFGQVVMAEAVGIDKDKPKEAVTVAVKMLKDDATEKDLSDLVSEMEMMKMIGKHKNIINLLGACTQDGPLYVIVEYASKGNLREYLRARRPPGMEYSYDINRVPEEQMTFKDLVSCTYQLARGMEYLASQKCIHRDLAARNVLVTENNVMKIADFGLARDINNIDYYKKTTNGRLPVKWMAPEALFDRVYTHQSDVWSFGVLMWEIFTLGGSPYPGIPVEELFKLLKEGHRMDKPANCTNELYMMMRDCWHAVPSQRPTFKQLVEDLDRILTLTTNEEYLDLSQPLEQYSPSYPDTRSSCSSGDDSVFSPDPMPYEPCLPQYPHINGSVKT
# T3 sequence (P22455 whole entry, looked up): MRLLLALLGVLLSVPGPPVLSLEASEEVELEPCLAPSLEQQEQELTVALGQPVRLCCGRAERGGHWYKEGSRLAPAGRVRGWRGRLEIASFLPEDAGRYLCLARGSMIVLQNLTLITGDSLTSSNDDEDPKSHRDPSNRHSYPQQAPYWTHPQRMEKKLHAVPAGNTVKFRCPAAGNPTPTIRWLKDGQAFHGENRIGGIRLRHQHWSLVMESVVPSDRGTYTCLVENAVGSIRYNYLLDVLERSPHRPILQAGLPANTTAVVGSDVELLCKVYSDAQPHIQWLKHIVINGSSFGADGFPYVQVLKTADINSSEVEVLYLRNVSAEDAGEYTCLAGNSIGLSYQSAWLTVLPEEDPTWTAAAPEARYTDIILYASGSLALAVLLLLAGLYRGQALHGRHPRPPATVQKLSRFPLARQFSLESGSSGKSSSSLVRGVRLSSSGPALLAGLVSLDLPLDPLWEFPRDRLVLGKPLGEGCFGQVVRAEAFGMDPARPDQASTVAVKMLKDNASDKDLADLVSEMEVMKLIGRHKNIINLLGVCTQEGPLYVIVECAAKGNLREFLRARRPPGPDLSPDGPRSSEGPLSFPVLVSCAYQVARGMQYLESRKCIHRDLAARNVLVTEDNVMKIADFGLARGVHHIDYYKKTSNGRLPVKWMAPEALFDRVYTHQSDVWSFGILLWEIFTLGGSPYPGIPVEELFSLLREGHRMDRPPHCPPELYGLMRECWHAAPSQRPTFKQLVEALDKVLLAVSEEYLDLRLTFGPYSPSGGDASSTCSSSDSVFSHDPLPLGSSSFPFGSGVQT
# T3 sequence (P22607 whole entry, looked up): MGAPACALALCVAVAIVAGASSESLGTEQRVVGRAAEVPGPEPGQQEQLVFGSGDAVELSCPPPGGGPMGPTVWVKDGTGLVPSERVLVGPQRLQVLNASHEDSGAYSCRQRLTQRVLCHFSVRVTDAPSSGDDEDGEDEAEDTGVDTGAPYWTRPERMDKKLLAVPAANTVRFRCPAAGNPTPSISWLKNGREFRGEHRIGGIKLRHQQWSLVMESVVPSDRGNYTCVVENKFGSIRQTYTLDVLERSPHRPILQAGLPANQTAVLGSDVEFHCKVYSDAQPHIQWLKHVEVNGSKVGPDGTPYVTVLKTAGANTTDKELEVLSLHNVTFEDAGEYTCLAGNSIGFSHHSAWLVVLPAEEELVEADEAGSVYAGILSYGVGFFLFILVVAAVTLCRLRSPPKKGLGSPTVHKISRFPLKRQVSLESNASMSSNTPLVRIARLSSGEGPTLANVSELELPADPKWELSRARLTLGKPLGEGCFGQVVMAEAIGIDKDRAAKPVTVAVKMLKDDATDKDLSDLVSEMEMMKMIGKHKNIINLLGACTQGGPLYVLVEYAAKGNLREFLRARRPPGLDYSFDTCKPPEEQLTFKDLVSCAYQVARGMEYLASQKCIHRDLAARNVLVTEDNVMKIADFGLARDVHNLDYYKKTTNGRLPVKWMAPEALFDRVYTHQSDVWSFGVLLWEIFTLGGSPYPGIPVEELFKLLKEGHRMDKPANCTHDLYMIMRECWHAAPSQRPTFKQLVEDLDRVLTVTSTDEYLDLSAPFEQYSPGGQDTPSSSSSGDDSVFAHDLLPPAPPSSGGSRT
# T2 sequence (P22455 whole entry): as the sequence (P22455 whole entry, looked up) above
# Sequence of Fibroblast growth factor receptor 3 (P22607 whole entry): as the sequence (P22607 whole entry, looked up) above
# Sequence of Fibroblast growth factor receptor 2 (Homo sapiens, UniProt P21802, V564F) (P21802 22-821 V564F limits assumed): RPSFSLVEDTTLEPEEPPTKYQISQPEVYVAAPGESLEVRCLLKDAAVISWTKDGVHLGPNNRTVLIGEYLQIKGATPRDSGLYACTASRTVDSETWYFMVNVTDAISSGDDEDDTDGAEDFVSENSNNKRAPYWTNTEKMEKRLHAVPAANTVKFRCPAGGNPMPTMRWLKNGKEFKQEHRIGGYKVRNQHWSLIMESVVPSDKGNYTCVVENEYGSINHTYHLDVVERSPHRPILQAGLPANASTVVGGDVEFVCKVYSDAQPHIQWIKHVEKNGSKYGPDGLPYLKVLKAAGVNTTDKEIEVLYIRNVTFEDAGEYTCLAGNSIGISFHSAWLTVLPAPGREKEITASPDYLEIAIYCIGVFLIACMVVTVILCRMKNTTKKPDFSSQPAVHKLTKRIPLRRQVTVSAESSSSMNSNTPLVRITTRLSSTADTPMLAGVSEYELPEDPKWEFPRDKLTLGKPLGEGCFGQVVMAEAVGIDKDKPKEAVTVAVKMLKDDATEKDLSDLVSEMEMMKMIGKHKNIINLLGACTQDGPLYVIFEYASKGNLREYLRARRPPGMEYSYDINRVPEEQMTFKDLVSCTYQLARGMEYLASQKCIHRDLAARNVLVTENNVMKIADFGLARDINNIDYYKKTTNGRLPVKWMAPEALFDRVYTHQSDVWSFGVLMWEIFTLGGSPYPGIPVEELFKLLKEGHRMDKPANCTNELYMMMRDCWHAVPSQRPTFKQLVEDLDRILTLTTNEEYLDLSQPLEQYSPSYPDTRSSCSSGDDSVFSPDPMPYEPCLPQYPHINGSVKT
# Sequence of Fibroblast growth factor receptor 2 (Homo sapiens, UniProt P21802, N549H) (P21802 22-821 N549H limits assumed): as the sequence (P21802 22-821 V564F limits assumed) above, with N528H, F543V counted along it
smiles,measurement,setting,value
C=CC(=O)N1CCCC(n2nc3c(=O)[nH]nc(N)c3c2-c2oc3ccc(C)cc3c2C)C1 (stereo not drawn),Activity,[1],65%
same,IC50,NCI-H226,> 10 µM
same,IC50,NCI-H3122,> 10 µM
same,IC50,NCI-H1792,> 10 µM
same,inhibition,[2],< 50%
same,inhibition,[3],102%
same,IC50,[4],0.155 µM
same,IC50,ASPC1,> 10 µM
same,inhibition,[5],37.6%
same,remaining at 2 h,[6],> 40%
same,IC50,NCI-H716,0.0032 µM
same,IC50,[7],0.016 µM
same,inhibition,[8],80.9%
same,IC50,NCI-H441,> 10 µM
same,IC50,HCC4006,> 10 µM
same,IC50,NCI-H1299,> 10 µM
same,IC50,SNU-16 [9],0.0012 µM
same,Activity,[10],Non-Toxic
same,IC50,[11],17.2 µM
same,Activity,SNU-16 [12],68.4%
same,IC50,NCI-H727,> 10 µM
same,AUC(0-t) at 24 h,[13],115 ng·h/mL
same,inhibition,[14],Active
same,IC50,NCI-H1581 [15],0.0549 µM
same,IC50,BaF3,> 10 µM
same,IC50,OPM-2,0.299 µM
same,IC50,CAPAN-1,> 10 µM
same,half-life,[16],55.9 min
same,Cmax,[17],174 ng/mL
same,IC50,NCI-H526,> 10 µM
same,Tmax,[18],15 min
same,inhibition,[19],Active
same,IC50,[20],0.0526 µM
same,IC50,PC-9,> 10 µM
same,IC50,SU.86.86,> 10 µM
same,IC50,[21],0.0061 µM
same,IC50,[22],2.86 µM
same,Activity,NCI-H1581 [23],Active
